According to patent US9169291B2, “Covalent conjugates between endoperoxides and transferrin and lactoferrin receptor-binding agents” (University of Washington, priority 2006, dated 2015):
Like-named read-outs stand apart in the source and are kept apart here.

Experiments:
human leukemia cells = conditions: cited from earlier work
[1] = test system: human Molt-4 lymphobastoid leukemia cells; test: cells; conditions: for IC50: read-out: IC50 on Molt-4 cells
Description: (§1) The artemisinin-tagged peptide HAIYPRH was tested on human Molt-4 lymphobastoid leukemia cells and compared with normal human lymphocytes, as follows. […] Cell viability was determined before an experiment by using trypan blue dye exclusion. After an initial counting of cells, human holotransferrin (Sigma Chemicals, St. Louis, Mo.) was added to samples of the cells. […] An equal volume of medium was added to control samples. […] At 24, 48 and 72 hrs after the addition of the tagged peptide, cell concentrations in appropriate flasks were counted using a counting hemocytometer chamber and microscope. In a similar set up, the same procedures were carried out on normal human lymphocytes.

normal human lymphocytes = test: Toxicity of artemisinin-tagged peptide in normal lymphocytes (cell counting)
Description: as §1

[2] = test system: DAOY human Medulloblastoma cells; conditions: for relative effectiveness on medulloblastoma cells (DAOY cells): two versus one artemisinin moiety
Description: DAOY human Medulloblastoma cells (10,000 cells/200 μL) were seeded on a 96 well plate and incubated for 24 h at 37° C. Cell culture medium was removed after 24 h and 150 μL of medium with different combinations of drug treatment was added. Human holotransferrin (20 μM) was added to half of the samples. Treatment medium was removed after 48 h, and 100 μL of cell medium was added, and the following protocol was used to determine cell viability: (1) 10 μL of 12 mM MTT reagent was added to each well; (2) the cultures were incubated at 37° C. for 4 h; (3) 100 μL of isopropanol was added to each well to lyse the cells and then incubated at 4° C. for 30 min; (4) after incubation each well was plunged (3×200 μL) to ensure the cells were lysed; (5) the samples were then centrifuged at 13,000 rpm in a microcentrifuge for 3 min at room temperature; and (6) 100 μL of the supernatant was read in a plate reader at λ=570 nm.

[3] = cited from earlier work

C[C@@H]1CC[C@H]2[C@@H](C)C(=O)O[C@@H]3O[C@@]4(C)CC[C@@H]1[C@]32OO4 [Artemisinin]
therapeutic index (toxicity towards cancer cells versus normal cells) (human leukemia cells): approximately 100

C[C@H]1[C@@H](O)O[C@@H]2O[C@@]3(C)CC[C@H]4[C@H](C)CC[C@@H]1[C@@]24OO3 [DHA, dihydroartemisinin]
IC50 ([1]; Homo sapiens, MOLT-4, 72 h): 5.3 ± 0.26 µM | LD50 (μM) (fresh sample) ([1]; fresh sample, after 72 hr): 5.3 ± 0.26 µM | LD50 (μM) (after stored in DMSO at room temperature for 30 days) ([1]; stored in DMSO at room temperature for 30 days, after 72 hr): 5.01 ± 0.35 µM | IC50 (normal human lymphocytes; Homo sapiens, Lymphocyte, read-out: IC50 for normal leukocytes): 43 ± 22 µM

CC[C@H](C)[C@H](NC(=O)[C@H](C)NC(=O)[C@H](Cc1c[nH]cn1)NC(=O)[C@H](CCCCNC(=O)c1ccc(/C=N/NC(=O)c2ccc(COC3OC4O[C@@]5(C)CCC6[C@H](C)CCC([C@H]3C)[C@@]46OO5)cc2)cc1)NC(=O)c1ccc(/C=N/NC(=O)c2ccc(COC3OC4O[C@@]5(C)CCC6[C@H](C)CCC([C@H]3C)[C@@]46OO5)cc2)cc1)C(=O)N[C@@H](Cc1ccc(O)cc1)C(=O)N1CCC[C@H]1C(=O)N[C@@H](CCCNC(=N)N)C(=O)N[C@@H](Cc1c[nH]cn1)C(N)=O (stereo partly shown) [ART2-peptide]
change in activity after storage in DMSO ([1]; kept in DMSO at room temperature for one month): essentially no change in activity | IC50 ([1]; at 72 hrs, holotransferrin 12 μM): 0.86 ± 0.1 µM | effect on medulloblastoma cells (DAOY cells) ([2]; 48 h treatment, MTT): effective | relative effectiveness on medulloblastoma cells (DAOY cells) [2]: more effective than ART-peptide | relative effectiveness on medulloblastoma cells (DAOY cells) ([2]; listed as peptide containing two artemisinin moieties): more potent than peptide containing one moiety

CC[C@H](C)[C@H](NC(=O)[C@H](C)NC(=O)[C@H](Cc1c[nH]cn1)NC(=O)c1ccc(/C=N/NC(=O)c2ccc(COC3OC4O[C@@]5(C)CCC6[C@H](C)CCC([C@H]3C)[C@@]46OO5)cc2)cc1)C(=O)N[C@@H](Cc1ccc(O)cc1)C(=O)N1CCC[C@H]1C(=O)N[C@@H](CCCNC(=N)N)C(=O)N[C@@H](Cc1c[nH]cn1)C(N)=O (stereo partly shown) [ART-peptide]
effect on normal lymphocytes (cell viability) (normal human lymphocytes; 3.1, 6.2, 12.4 μM, 24, 48 and 72 hours): without affecting normal lymphocytes

CO[C@H]1O[C@@H]2O[C@@]3(C)CC[C@H]4[C@H](C)CC[C@@H]([C@H]1C)[C@@]24OO3 [artemether]
adverse side effects ([3]; patient with pituitary macroadenoma, oral, 12 months): without any observed adverse side effects

C[C@H]1[C@H](OC(=O)CCC(=O)O)O[C@@H]2O[C@@]3(C)CC[C@H]4[C@H](C)CC[C@@H]1[C@@]24OO3 [artesunate]
adverse side effects ([3]; cancer patient, 9 months (i.m. 60 mg/day 15 days; oral 50 mg per day 8.5 months)): No apparent adverse side effects
